Tests used:
c-Raf = c-Raf (Homo sapiens, UniProt P04049); assay: Luciferase-coupled chemiluminescence kinase assay (ATP consumption), c-Raf; assay type: biochemical; conditions: read-out: cRaf-1 (inhibition indicated as IC50)
How it was run: (§1)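 ATP depletion, limited to 25-60%, read by luciferase-luciferin chemiluminescence gives IC50 values. Before the 3 hr ambient-temperature kinase reaction with ATP, compound and […] enzyme were preincubated 30 minutes at room temperature in Tris pH 7.5 buffer with MgCl2, TX-100 and DTT.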

B-Raf = B-Raf (Homo sapiens, UniProt P15056); assay: Luciferase-coupled chemiluminescence kinase assay (ATP consumption), B-Raf; assay type: biochemical; conditions: read-out: bRaf (inhibition indicated as IC50)
Sequence of B-Raf (P15056 whole entry): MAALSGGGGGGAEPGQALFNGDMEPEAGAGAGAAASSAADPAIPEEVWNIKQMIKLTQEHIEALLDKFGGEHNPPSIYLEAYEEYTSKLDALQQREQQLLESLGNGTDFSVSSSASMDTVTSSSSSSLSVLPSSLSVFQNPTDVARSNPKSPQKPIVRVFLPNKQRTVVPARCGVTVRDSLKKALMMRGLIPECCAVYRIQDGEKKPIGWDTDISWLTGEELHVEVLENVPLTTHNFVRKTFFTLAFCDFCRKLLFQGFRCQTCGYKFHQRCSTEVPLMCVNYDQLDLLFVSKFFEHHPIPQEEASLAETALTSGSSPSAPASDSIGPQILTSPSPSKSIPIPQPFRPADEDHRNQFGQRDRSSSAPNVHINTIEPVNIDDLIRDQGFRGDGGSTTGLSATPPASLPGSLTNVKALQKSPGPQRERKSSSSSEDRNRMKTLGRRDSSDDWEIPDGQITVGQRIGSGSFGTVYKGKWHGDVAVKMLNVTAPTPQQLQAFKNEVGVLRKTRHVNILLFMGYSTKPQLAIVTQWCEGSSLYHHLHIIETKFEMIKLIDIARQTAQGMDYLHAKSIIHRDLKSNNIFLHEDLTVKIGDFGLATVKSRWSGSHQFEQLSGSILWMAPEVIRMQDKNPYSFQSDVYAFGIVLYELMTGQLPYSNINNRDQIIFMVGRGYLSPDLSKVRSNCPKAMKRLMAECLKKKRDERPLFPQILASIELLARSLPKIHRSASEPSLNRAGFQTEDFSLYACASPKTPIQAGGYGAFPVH
How it was run: as §1

Sequence of c-Raf (P04049 whole entry): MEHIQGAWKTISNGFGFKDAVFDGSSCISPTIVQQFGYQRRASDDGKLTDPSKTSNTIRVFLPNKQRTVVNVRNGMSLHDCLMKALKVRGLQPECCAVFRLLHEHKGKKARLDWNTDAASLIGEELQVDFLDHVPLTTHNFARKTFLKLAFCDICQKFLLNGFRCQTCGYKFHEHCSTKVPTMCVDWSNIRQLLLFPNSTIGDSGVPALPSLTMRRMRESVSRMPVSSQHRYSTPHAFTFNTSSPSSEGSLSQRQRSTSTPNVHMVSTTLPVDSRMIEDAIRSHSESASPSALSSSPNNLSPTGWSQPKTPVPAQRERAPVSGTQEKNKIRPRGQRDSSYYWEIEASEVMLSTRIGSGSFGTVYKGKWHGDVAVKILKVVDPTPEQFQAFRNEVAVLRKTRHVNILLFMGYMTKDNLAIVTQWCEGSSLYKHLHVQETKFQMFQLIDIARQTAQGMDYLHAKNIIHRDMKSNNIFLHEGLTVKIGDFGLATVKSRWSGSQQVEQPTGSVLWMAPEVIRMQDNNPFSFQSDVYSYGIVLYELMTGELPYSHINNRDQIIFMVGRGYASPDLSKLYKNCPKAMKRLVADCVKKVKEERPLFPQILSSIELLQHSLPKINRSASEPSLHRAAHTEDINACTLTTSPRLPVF

| Compound | IC50 (c-Raf) [nM] | IC50 (B-Raf) [nM] |
| --- | --- | --- |
| COC(=O)Nc1nc2cc(C3c4ccccc4C(=O)N3c3cccc(Br)c3)ccc2[nH]1 (centres unmarked) [Entry 281, methyl {5-[2-(3-bromophenyl)-3-oxo-2,3-dihydro-1H-isoindol-1-yl]-1H-benzimidazol-2-yl}carbamate] | < 100 | < 100 |
| C#Cc1cccc(N2C(=O)c3ccccc3C2(O)c2ccc3[nH]c(NC(=O)OC)nc3c2)c1F (centres unmarked) [Entry 282, methyl {5-[2-(3-ethynyl-2-fluorophenyl)-1-hydroxy-3-oxo-2,3-dihydro-1H-isoindol-1-yl]-1H-benzimidazol-2-yl}carbamate] | < 100 | < 100 |
| COC(=O)Nc1nc2cc(C3(O)c4ccccc4C(=O)N3c3cccc(Cl)c3C)ccc2[nH]1 (centres unmarked) [Entry 284, methyl {5-[2-(3-chloro-2-methylphenyl)-1-hydroxy-3-oxo-2,3-dihydro-1H-isoindol-1-yl]-1H-benzimidazol-2-yl}carbamate] | < 100 | < 100 |
| COC(=O)Nc1nc2cc(C3(O)c4ccccc4C(=O)N3c3cc(Cl)ccc3C)ccc2[nH]1 (centres unmarked) [Entry 285, methyl {5-[2-(5-chloro-2-methylphenyl)-1-hydroxy-3-oxo-2,3-dihydro-1H-isoindol-1-yl]-1H-benzimidazol-2-yl}carbamate] | < 100 | < 100 |
| CC(C)(CN1CCCCC1)C(=O)Nc1nc2ccc(C3(O)c4ccccc4C(=O)N3Cc3ccccc3)cc2[nH]1 (centres unmarked) [Entry 286, N-{6-[1-hydroxy-3-oxo-2-(phenylmethyl)-2,3-dihydro-1H-isoindol-1-yl]-1H-benzimidazol-2-yl}-2,2-dimethyl-3-piperidin-1-ylpropanamide] | 1000 to 10000 | 1000 to 10000 |
| COC(=O)Nc1nc2ccc(C(=O)c3ccccc3NC(=O)c3ccccc3)cc2[nH]1 [Entry 289, methyl [6-({2-[(phenylcarbonyl)amino]phenyl}carbonyl)-1H-benzimidazol-2-yl]carbamate] | 1000 to 10000 | 1000 to 10000 |
| CN(C)CCOC(=O)Nc1nc2ccc(C3(O)c4ccccc4C(=O)N3c3cccc(Cl)c3F)cc2[nH]1 (centres unmarked) [Entry 291, 2-(dimethylamino)ethyl {6-[2-(3-chloro-2-fluorophenyl)-1-hydroxy-3-oxo-2,3-dihydro-1H-isoindol-1-yl]-1H-benzimidazol-2-yl}carbamate] | < 100 | < 100 |
| CCN(CC)CCOC(=O)Nc1nc2cc(C3(O)c4ccccc4C(=O)N3c3cccc(Cl)c3F)ccc2[nH]1 (centres unmarked) [Entry 292, 2-(diethylamino)ethyl {5-[2-(3-chloro-2-fluorophenyl)-1-hydroxy-3-oxo-2,3-dihydro-1H-isoindol-1-yl]-1H-benzimidazol-2-yl}carbamate] | < 100 | < 100 |
| O=C(Nc1nc2ccc(C3c4ccccc4C(=O)N3c3cccc(Br)c3)cc2[nH]1)OCCN1CCCCC1 (centres unmarked) [Entry 295, 2-piperidin-1-ylethyl {6-[2-(3-bromophenyl)-3-oxo-2,3-dihydro-1H-isoindol-1-yl]-1H-benzimidazol-2-yl}carbamate] | < 100 | 100 to 1000 |
| COC(=O)Nc1nc2ccc(C3(O)c4c(F)ccc(F)c4C(=O)N3c3cccc(Br)c3)cc2[nH]1 (centres unmarked) [Entry 296, methyl {6-[2-(3-bromophenyl)-4,7-difluoro-1-hydroxy-3-oxo-2,3-dihydro-1H-isoindol-1-yl]-1H-benzimidazol-2-yl}carbamate] | < 100 | < 100 |
| CN(CCOC(=O)Nc1nc2cc(C3(O)c4ccccc4C(=O)N3c3cccc(Cl)c3F)ccc2[nH]1)Cc1ccccc1 (centres unmarked) [Entry 297, 2-[methyl(phenylmethyl)amino]ethyl {5-[2-(3-chloro-2-fluorophenyl)-1-hydroxy-3-oxo-2,3-dihydro-1H-isoindol-1-yl]-1H-benzimidazol-2-yl}carbamate] | < 100 | < 100 |
| COC(=O)Nc1nc2cc(C3(O)c4ccccc4C(=O)N3c3cc(Cl)cc(F)c3F)ccc2[nH]1 (centres unmarked) [Entry 299, methyl {5-[2-(5-chloro-2,3-difluorophenyl)-1-hydroxy-3-oxo-2,3-dihydro-1H-isoindol-1-yl]-1H-benzimidazol-2-yl}carbamate] | < 100 | < 100 |
| COC(=O)Nc1nc2cc(C3(O)c4ccccc4C(=O)N3CC3CCCN3)ccc2[nH]1 (centres unmarked) [Entry 300, methyl {5-[1-hydroxy-3-oxo-2-(pyrrolidin-2-ylmethyl)-2,3-dihydro-1H-isoindol-1-yl]-1H-benzimidazol-2-yl}carbamate] | 1000 to 10000 | 1000 to 10000 |
| COC(=O)Nc1nc2cc(C3(O)c4ccccc4C(=O)N3CC3CCNC3)ccc2[nH]1 (centres unmarked) [Entry 301, methyl {5-[1-hydroxy-3-oxo-2-(pyrrolidin-3-ylmethyl)-2,3-dihydro-1H-isoindol-1-yl]-1H-benzimidazol-2-yl}carbamate] | 1000 to 10000 | 1000 to 10000 |
| CN1CCCCC1COC(=O)Nc1nc2ccc(C3(O)c4ccccc4C(=O)N3c3cccc(Cl)c3F)cc2[nH]1 (centres unmarked) [Entry 302, (1-methylpiperidin-2-yl)methyl {6-[2-(3-chloro-2-fluorophenyl)-1-hydroxy-3-oxo-2,3-dihydro-1H-isoindol-1-yl]-1H-benzimidazol-2-yl}carbamate] | < 100 | < 100 |
| CN1CCC[C@H]1COC(=O)Nc1nc2ccc(C3(O)c4ccccc4C(=O)N3c3cccc(Cl)c3F)cc2[nH]1 (stereo partly drawn) [Entry 303, [(2S)-1-methylpyrrolidin-2-yl]methyl {6-[2-(3-chloro-2-fluorophenyl)-1-hydroxy-3-oxo-2,3-dihydro-1H-isoindol-1-yl]-1H-benzimidazol-2-yl}carbamate] | < 100 | < 100 |
| O=C(Nc1nc2ccc(C3(O)c4ccccc4C(=O)N3c3cccc(Cl)c3F)cc2[nH]1)OCC1CCCN2CCCCC12 (centres unmarked) [Entry 304, octahydro-2H-quinolizin-1-ylmethyl {6-[2-(3-chloro-2-fluorophenyl)-1-hydroxy-3-oxo-2,3-dihydro-1H-isoindol-1-yl]-1H-benzimidazol-2-yl}carbamate] | < 100 | < 100 |
| COC(=O)Nc1nc2cc(C3(O)c4ccccc4C(=O)N3c3cc(Br)ccc3C)ccc2[nH]1 (centres unmarked) [Entry 305, methyl {5-[2-(5-bromo-2-methylphenyl)-1-hydroxy-3-oxo-2,3-dihydro-1H-isoindol-1-yl]-1H-benzimidazol-2-yl}carbamate] | < 100 | < 100 |
| O=C1c2ccccc2C(O)(c2ccc3[nH]c(=O)[nH]c3c2)N1c1cccc(Cl)c1F (centres unmarked) [Entry 306, 5-[2-(3-chloro-2-fluorophenyl)-1-hydroxy-3-oxo-2,3-dihydro-1H-isoindol-1-yl]-1,3-dihydro-2H-benzimidazol-2-one] | 1000 to 10000 | 1000 to 10000 |

The next lines start with the values.

| IC50 (c-Raf) [nM] | IC50 (B-Raf) [nM] | Compound |
| --- | --- | --- |
| < 100 | 100 to 1000 | O=C(Nc1nc2ccc(C3(O)c4ccccc4C(=O)N3c3ccc(F)cc3)cc2[nH]1)OCCCN1CCCCC1 (centres unmarked) [Entry 279, 3-piperidin-1-ylpropyl {6-[2-(4-fluorophenyl)-1-hydroxy-3-oxo-2,3-dihydro-1H-isoindol-1-yl]-1H-benzimidazol-2-yl}carbamate] |
| < 100 | < 100 | CN1CCN(CCCOC(=O)Nc2nc3ccc(C4(O)c5ccccc5C(=O)N4c4ccc(F)cc4)cc3[nH]2)CC1 (centres unmarked) [Entry 280, 3-(4-methylpiperazin-1-yl)propyl {6-[2-(4-fluorophenyl)-1-hydroxy-3-oxo-2,3-dihydro-1H-isoindol-1-yl]-1H-benzimidazol-2-yl}carbamate] |
| < 100 | 100 to 1000 | O=C(Nc1nc2cc(C3(O)c4ccccc4C(=O)N3c3ccc(F)cc3)ccc2[nH]1)OCCN1CCCCC1 (centres unmarked) [Entry 283, 2-piperidin-1-ylethyl {5-[2-(4-fluorophenyl)-1-hydroxy-3-oxo-2,3-dihydro-1H-isoindol-1-yl]-1H-benzimidazol-2-yl}carbamate] |
| < 100 | < 100 | O=C(CCCN1CCCCC1)Nc1nc2cc(C3(O)c4ccccc4C(=O)N3c3ccc(F)cc3)ccc2[nH]1 (centres unmarked) [Entry 287, N-{5-[2-(4-fluorophenyl)-1-hydroxy-3-oxo-2,3-dihydro-1H-isoindol-1-yl]-1H-benzimidazol-2-yl}-4-piperidin-1-ylbutanamide] |
| < 100 | < 100 | O=C(CCCN1CCCCC1)Nc1nc2cc(C3(O)c4ccccc4C(=O)N3c3cccc(Cl)c3F)ccc2[nH]1 (centres unmarked) [Entry 288, N-{5-[2-(3-chloro-2-fluorophenyl)-1-hydroxy-3-oxo-2,3-dihydro-1H-isoindol-1-yl]-1H-benzimidazol-2-yl}-4-piperidin-1-ylbutanamide] |
| 1000 to 10000 | 1000 to 10000 | COC(=O)Nc1nc2cc(C3(O)c4ccccc4C(=O)N3c3cccc(N4CCOCC4)c3)ccc2[nH]1 (centres unmarked) [Entry 290, methyl {5-[1-hydroxy-2-(3-morpholin-4-ylphenyl)-3-oxo-2,3-dihydro-1H-isoindol-1-yl]-1H-benzimidazol-2-yl}carbamate] |
| < 100 | < 100 | O=C(Nc1nc2cc(C3(O)c4ccccc4C(=O)N3c3cccc(Cl)c3F)ccc2[nH]1)OCCN1CCCCC1 (centres unmarked) [Entry 293, 2-piperidin-1-ylethyl {5-[2-(3-chloro-2-fluorophenyl)-1-hydroxy-3-oxo-2,3-dihydro-1H-isoindol-1-yl]-1H-benzimidazol-2-yl}carbamate] |
| 1000 to 10000 | 1000 to 10000 | O=C(Nc1nc2ccc(C3(O)c4ccccc4C(=O)N3c3cccc(Cl)c3F)cc2[nH]1)OCCCN1CCCCC1 (centres unmarked) [Entry 294, 3-piperidin-1-ylpropyl {6-[2-(3-chloro-2-fluorophenyl)-1-hydroxy-3-oxo-2,3-dihydro-1H-isoindol-1-yl]-1H-benzimidazol-2-yl}carbamate] |
| 1000 to 10000 | 1000 to 10000 | COC(=O)Nc1nc2cc(C3(O)c4ccccc4C(=O)N3c3cccc(N4CCCC4)c3)ccc2[nH]1 (centres unmarked) [Entry 298, methyl {5-[1-hydroxy-3-oxo-2-(3-pyrrolidin-1-ylphenyl)-2,3-dihydro-1H-isoindol-1-yl]-1H-benzimidazol-2-yl}carbamate] |

Reference: patent US7846959B2, “Raf modulators and methods of use” (Exelixis, Inc., priority 2004, dated 2010)
